For one data set, the system named is dysplastic lesions. As to conditions: three months, cited from earlier work.
The subject of the next data set is P13K. As to conditions: conclusion of Gustafson et al; cited from earlier work.
The format of data set [1] is physicochemical. From the text: In certain embodiments of the invention, the dry powder compositions may comprise myo-inositol (cis-1,2,3,5-trans-4,6-cyclohexanehexyl). Dry powder compositions comprising myo-inositol are disclosed in the Sievers et al U.S. Patent Application No. 2008/0035143 A1, incorporated herein in its entirety, although other myo-inositol dry powder compositions, including those generally and/or specifically disclosed herein are also suitable for use in embodiments of the present invention. Dry powder compositions comprising myo-inositol may optionally further include one or more of amino acids, for example, arginine, alanine, histidine, leucine, and/or methionine, surfactants, for example, palmitic acid, stearic acid, Tween 20, Tween 80, and/or Pluronic F68, stabilizers, buffers, for example, tricine, sodium or potassium phosphate, sodium acetate, and/or sodium citrate, metal chelating agents, for example EDTA and/or DTPA, gelatin, albumin, or the like. In one specific embodiment, myo-inositol and leucine are employed in a 98.5:1.5 weight ratio. Advantageously, myo-inositol dry powder compositions containing one or more additional components are provided using the CAN-BD process. It has been discovered that when pure myo-inositol is processed by the CAN-BD process at a temperature of about 50° C., a crystal polymorph which is different from the common crystal polymorph of native myo-inositol forms. This polymorph has an exothermic transition with onset of 110-130° C. and appears to be thermally stable at room temperature for only short periods of time (less than 2 weeks), but remains for longer periods of time when stored at temperatures of 2-8° C. (for at least 3 months and up to 5 months), and is removed by annealing at 115° C. or above. The moisture content of this new polymorph is very low (0.1% water) and identical to the moisture content of native myo-inositol. The X-ray diffraction pattern of this polymorph differs from those of native myo-inositol and a previously disclosed myo-inositol dihydrate (Bonnet 2006). […]

With `O[C@H]1[C@H](O)[C@@H](O)[C@H](O)[C@@H](O)[C@H]1O` [myo-inositol, cis-1,2,3,5-trans-4,6-cyclohexanehexyl], the maximum tolerated dose in the data set on dysplastic lesions (oral administration to the gastrointestinal tract) is listed as 18 grams per day. The “regression in dysplastic lesions” value with dysplastic lesions (oral, mild to moderate airway dysplasia) was “significant regression”. Further, in the data set on P13K, the P13K inhibition entry is “P13K inhibitor”.
As for `O[C@H]1[C@H](O)[C@@H](O)[C@H](O)[C@@H](O)[C@H]1O` [crystal polymorph, myo-inositol], the “period of thermal stability” value in data set [1] is listed as “less than 2 weeks”. This molecule came in with a moisture content in data set [1] (new polymorph, identical to native myo-inositol) of 0.1 % water. For the same molecule, the “period for which the polymorph remains” value in data set [1] (stored at 2-8° C.) is listed as “at least 3 months”.

The record behind these values is US9895321B2, “Vaccines, methods of administering vaccines, methods and products for treating and/or delaying onset of dysplastic lesions, and wafers for oral administration” (AKTIV-DRY LLC, priority 2010, dated 2018).
